Results taken from EPA's ToxRefDB 2.

Columns and labels:
rat [1] = conditions: Carcinogenicity, fischer, Oral, Gavage/Intubation, dose end: 2 year, group: systemic
rat [2] = conditions: Subchronic inhalation toxicity, sprague dawley, Whole-Body, dose end: 13 week, group: systemic
mouse [3] = conditions: Subchronic oral toxicity in rodents, b6c3f1, Water, dose end: 13 week
rat [4] = conditions: Subchronic oral toxicity in rodents, fischer, Water, dose end: 13 week
rabbit [5] = conditions: Prenatal developmental toxicity study, new zealand white, Inhalation, Whole-Body, dose end: 18 GD
rabbit [6] = conditions: Subchronic inhalation toxicity, new zealand white, Whole-Body, dose end: 13 week, group: systemic
rat [7] = conditions: Prenatal developmental toxicity study, wistar, Inhalation, Whole-Body, dose end: 15 GD
mouse [8] = conditions: Carcinogenicity, b6c3f1, Oral, Gavage/Intubation, dose end: 2 year, group: systemic
rabbit [9] = conditions: Prenatal developmental toxicity study; dutch; Inhalation; Whole-Body; dose end: 18 GD; group: developmental; developmental / developmental malformation / bone / incomplete ossification + developmental / developmental malformation / bone / …
rat [10] = conditions: Prenatal developmental toxicity study, wistar, Inhalation, Whole-Body, dose end: 19 GD
rat [11] = conditions: Prenatal developmental toxicity study, wistar, Inhalation, Whole-Body, dose end: 19 GD; remark: listed apart in the source
[12] = systemic / in life observation / body weight / body weight
[13] = systemic / in life observation / body weight / body weight + systemic / pathology gross / adrenal gland / enlarged
[14] = systemic / organ weight / spleen / absolute + systemic / organ weight / spleen / relative to body weight
[15] = systemic / organ weight / spleen / absolute + systemic / organ weight / spleen / relative to body weight + systemic / clinical chemistry / …
[16] = group: maternal, reproductive / reproductive performance / estrous cycle / length
[17] = group: systemic, systemic / in life observation / body weight / body weight gain + systemic / organ weight / testes / absolute + systemic / pathology gross…
[18] = group: maternal, reproductive / reproductive performance / estrous cycle / abnormal + reproductive / reproductive performance / estrous cycle / length
[19] = group: systemic, systemic / clinical chemistry / alkaline phosphatase (alp/alk) / alkaline phosphatase (alp/alk)
[20] = group: systemic, systemic / in life observation / body weight / body weight + systemic / in life observation / body weight / body weight gain + systemic / …
[21] = group: developmental, developmental / developmental malformation / bone / supernumerary + developmental / developmental malformation / heart / [other] + …
[22] = group: maternal, reproductive / reproductive performance / resorptions / resorptions + systemic / in life observation / body weight / body weight gain + …
[23] = group: maternal, reproductive / reproductive performance / resorptions / resorptions + systemic / in life observation / food consumption / food consumption…
[24] = systemic / clinical chemistry / cholesterol / cholesterol
[25] = systemic / clinical chemistry / cholesterol / cholesterol + systemic / hematology / erythrocyte (rbc) count differential / erythrocyte (rbc…
[26] = group: developmental, systemic / in life observation / body weight / litter weight
[27] = group: developmental, systemic / in life observation / body weight / litter weight + developmental / developmental malformation / bone / incomplete ossification…
[28] = group: maternal, reproductive / reproductive performance / preimplantation loss / preimplantation loss + reproductive / offspring survival early / live …
[29] = systemic / in life observation / mortality / mortality + systemic / pathology gross / stomach / ulcer + systemic / pathology gross / testes…
[30] = group: developmental, developmental / developmental malformation / bone / incomplete ossification + developmental / developmental malformation / bone / knobby + …
[31] = group: maternal, reproductive / reproductive performance / resorptions / resorptions
[32] = group: maternal, reproductive / reproductive performance / resorptions / resorptions + systemic / in life observation / body weight / body weight + systemic…
[33] = group: maternal, systemic / organ weight / spleen / relative to body weight

SMILES: CCOCCO [2-Ethoxyethanol]
- LOAEL (rat [1]; [12]): 500 mg/kg/day
- NOAEL (rat [1]; [12]): < 500 mg/kg/day
- LEL (rat [1]; [13]): 500 mg/kg/day
- NEL (rat [1]; [13]): < 500 mg/kg/day
- LEL (rat [2]; [14]): 25 ppm
- NEL (rat [2]; [14]): < 25 ppm
- LOAEL (rat [2]; [15]): > 400 ppm
- NOAEL (rat [2]; [15]): ≥ 400 ppm
- LEL (mouse [3]; [16]): 722 mg/kg/day
- LOAEL (mouse [3]; [16]): > 11200 mg/kg/day
- NEL (mouse [3]; [16]): < 722 mg/kg/day
- NOAEL (mouse [3]; [16]): ≥ 11200 mg/kg/day
- LOAEL (mouse [3]; [17]): 5120 mg/kg/day
- NOAEL (mouse [3]; [17]): 2000 mg/kg/day
- LEL (mouse [3]; group: systemic, systemic / pathology microscopic / adrenal gland / hypertrophy): 2720 mg/kg/day
- NEL (mouse [3]; group: systemic, systemic / pathology microscopic / adrenal gland / hypertrophy + systemic / in life observation / body weight / body weight gain + systemic…): 1300 mg/kg/day
- LEL (rat [4]; [18]): 804 mg/kg/day
- LOAEL (rat [4]; [18]): > 2060 mg/kg/day
- NEL (rat [4]; [18]): 466 mg/kg/day
- NOAEL (rat [4]; [18]): ≥ 2060 mg/kg/day
- LEL (rat [4]; [19]): 109 mg/kg/day
- NEL (rat [4]; [19]): < 109 mg/kg/day
- LOAEL (rat [4]; [20]): 792 mg/kg/day
- NOAEL (rat [4]; [20]): 400 mg/kg/day
- LEL (rabbit [5]; [21]): 160 ppm
- LOAEL (rabbit [5]; [21]): > 617 ppm
- NEL (rabbit [5]; [21]): < 160 ppm
- NOAEL (rabbit [5]; [21]): ≥ 617 ppm
- LOAEL (rabbit [5]; [22]): > 617 ppm
- NOAEL (rabbit [5]; [22]): ≥ 617 ppm
- LEL (rabbit [5]; [23]): 160 ppm
- NEL (rabbit [5]; [23]): < 160 ppm
- LEL (rabbit [6]; [24]): 25 ppm
- NEL (rabbit [6]; [24]): < 25 ppm
- LOAEL (rabbit [6]; [25]): > 400 ppm
- NOAEL (rabbit [6]; [25]): ≥ 400 ppm
- LEL (rat [7]; [26]): 10 ppm
- NEL (rat [7]; [26]): < 10 ppm
- LOAEL (rat [7]; [27]): > 250 ppm
- NOAEL (rat [7]; [27]): ≥ 250 ppm
- LEL (rat [7]; [28]): 10 ppm
- LOAEL (rat [7]; [28]): > 250 ppm
- NEL (rat [7]; [28]): < 10 ppm
- NOAEL (rat [7]; [28]): ≥ 250 ppm
- LOAEL (mouse [8]; [29]): > 2000 mg/kg/day
- NEL (mouse [8]; [29]): 500 mg/kg/day
- NOAEL (mouse [8]; [29]): ≥ 2000 mg/kg/day
- LEL (mouse [8]; systemic / pathology gross / testes / reduced size): 1000 mg/kg/day
- LEL (rabbit [9]): 175 ppm
- LOAEL (rabbit [9]): > 175 ppm
- NEL (rabbit [9]): 50 ppm
- NOAEL (rabbit [9]): ≥ 175 ppm
- LEL (rat [10]; [30]): 150 ppm
- LOAEL (rat [10]; [30]): > 649 ppm
- NEL (rat [10]; [30]): < 150 ppm
- NOAEL (rat [10]; [30]): ≥ 649 ppm
- LEL (rat [10]; [31]): 150 ppm
- NEL (rat [10]; [31]): < 150 ppm
- LOAEL (rat [10]; [32]): > 649 ppm
- NOAEL (rat [10]; [32]): ≥ 649 ppm
- LEL (rat [11]; [30]): 202 ppm
- LOAEL (rat [11]; [30]): > 767 ppm
- NEL (rat [11]; [30]): < 202 ppm
- NOAEL (rat [11]; [30]): ≥ 767 ppm
- LOAEL (rat [11]; [32]): > 767 ppm
- NOAEL (rat [11]; [32]): ≥ 767 ppm
- LEL (rat [11]; [33]): 202 ppm
- NEL (rat [11]; [33]): < 202 ppm
